Assay type in all cases: binding
Test [1] deals with T1, MadR (mycolic acid desaturase regulator, Rv0472c) (Mycobacterium tuberculosis, UniProt P9WMD9). Nature of the test: intrinsic tryptophan fluorescence quenching.
Test [2] has as its target T1, MadR (mycolic acid desaturase regulator, Rv0472c). Nature of the test: intrinsic tryptophan fluorescence quenching; EMSA shows release from desA1/desA2 promoters. A general note: A gel shift assay detects complexes by their altered migration in electrophoresis.
For test [3] the target is unchanged. Nature of the test: intrinsic tryptophan fluorescence quenching (binds, but does not release promoter DNA).

Each structure is given as a SMILES string.

T1 sequence (P9WMD9 whole entry, looked up): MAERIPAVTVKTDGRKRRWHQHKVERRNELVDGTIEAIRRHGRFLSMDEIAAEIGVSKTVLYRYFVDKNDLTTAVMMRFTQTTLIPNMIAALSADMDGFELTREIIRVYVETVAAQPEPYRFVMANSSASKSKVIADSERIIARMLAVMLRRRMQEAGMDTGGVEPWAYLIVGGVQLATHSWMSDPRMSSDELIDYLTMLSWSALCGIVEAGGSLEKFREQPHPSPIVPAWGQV

For the compound `CCCCCCCCCCCCCC(=O)SCCNC(=O)CCNC(=O)[C@H](O)C(C)(C)COP(=O)(O)OP(=O)(O)OC[C@H]1O[C@@H](n2cnc3c(N)ncnc32)[C@H](O)[C@@H]1OP(=O)(O)O` [C14:0-CoA, myristoyl-CoA], the Kd (commonly the free concentration of one partner at which half of the binding sites on the other are occupied at equilibrium, for simple one-to-one binding) in test [1] turned out to be 12.4 µM.

In turn, `CCCCCCCCCCCCCCCC(=O)SCCNC(=O)CCNC(=O)[C@H](O)C(C)(C)COP(=O)(O)OP(=O)(O)OC[C@H]1O[C@@H](n2cnc3c(N)ncnc32)[C@H](O)[C@@H]1OP(=O)(O)O` [C16:0-CoA, palmitoyl-CoA] gave a Kd in test [2] of 10.7 µM.

In test [2], `CCCCCCCCCCCCCCCCCC(=O)SCCNC(=O)CCNC(=O)[C@H](O)C(C)(C)COP(=O)(O)OP(=O)(O)OC[C@H]1O[C@@H](n2cnc3c(N)ncnc32)[C@H](O)[C@@H]1OP(=O)(O)O` [C18:0-CoA, stearoyl-CoA] registered a Kd of 7.73 µM.

As to `CCCCCCCC/C=C\CCCCCCCC(=O)SCCNC(=O)CCNC(=O)[C@H](O)C(C)(C)COP(=O)(O)OP(=O)(O)OC[C@H]1O[C@@H](n2cnc3c(N)ncnc32)[C@H](O)[C@@H]1OP(=O)(O)O` [C18:1-CoA, oleoyl-CoA], in test [3], the Kd is 9.55 µM.

With `CCCCC/C=C\C/C=C\CCCCCCCC(=O)SCCNC(=O)CCNC(=O)[C@H](O)C(C)(C)COP(=O)(O)OP(=O)(O)OC[C@H]1O[C@@H](n2cnc3c(N)ncnc32)[C@H](O)[C@@H]1OP(=O)(O)O` [C18:2-CoA, linoleoyl-CoA], the Kd in test [3] was found to be 9.88 µM. The Kd values of the last two compounds are within 1.5-fold of each other.

In test [2], `CCCCCCCCCCCCCCCCCCCCCCCC(=O)SCCNC(=O)CCNC(=O)[C@H](O)C(C)(C)COP(=O)(O)OP(=O)(O)OC[C@H]1O[C@@H](n2cnc3c(N)ncnc32)[C@H](O)[C@@H]1OP(=O)(O)O` [C24:0-CoA, lignoceroyl-CoA] returned a Kd of 18.1 µM. This counts as double-digit micromolar.

Values taken from article PMC8872791, “MadR mediates acyl CoA-dependent regulation of mycolic acid desaturation in mycobacteria” (Proceedings of the National Academy of Sciences of the …, 2022).
